Measured values reported in patent publication US6867283B2, “Peptides capable of binding to MHC molecules, cells presenting such peptides, and pharmaceutical compositions comprising such peptides and/or cells” (Technion Research & Development Foundation Ltd., priority 2001, dated 2005).

How the values were obtained:
HLA-A2.1 = test system: T1, HLA-A2.1; assay: Stabilization of cell surface HLA-A2.1 by peptide binding (reconstitution into empty MHC on RMA-S-HHD cells, FACS); type: cell-based, human; details: synthetic peptide 100 μM, FACS with W6/32 mAb
T1 construct: expressed in transfected cells; host or cells: RMA-S (murine TAP-2 deficient lymphoma, C57BL/6 origin)
T1 sequence (P61769 with tags, fused parts or gaps): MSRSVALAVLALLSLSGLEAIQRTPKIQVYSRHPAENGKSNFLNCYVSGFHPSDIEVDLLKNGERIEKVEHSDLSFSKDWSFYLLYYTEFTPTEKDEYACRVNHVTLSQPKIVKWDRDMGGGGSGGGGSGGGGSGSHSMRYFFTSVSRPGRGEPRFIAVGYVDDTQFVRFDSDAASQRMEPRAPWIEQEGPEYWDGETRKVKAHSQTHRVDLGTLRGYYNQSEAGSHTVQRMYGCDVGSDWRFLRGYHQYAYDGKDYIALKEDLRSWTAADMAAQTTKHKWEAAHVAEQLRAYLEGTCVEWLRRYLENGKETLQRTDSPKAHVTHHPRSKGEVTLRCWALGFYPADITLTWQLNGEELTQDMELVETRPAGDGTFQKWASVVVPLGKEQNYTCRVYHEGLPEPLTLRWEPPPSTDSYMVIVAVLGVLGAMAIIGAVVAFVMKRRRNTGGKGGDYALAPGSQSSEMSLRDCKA
Method: Synthetic peptides were added to 10^6 RMA-S-HHD cells to a concentration of 100 μM followed by incubation for two hours at 26° C. and two hours at 37° C. […] The HLA-A2.1 peptide derived from gp100 served as a positive control and unloaded RMA-S-HHD cells as a negative control.
RMA-S-HHD cells were washed three times with PBS followed by incubation overnight in FCS-free IMDM medium at 26° C. Synthetic peptides were added to 10^6 cells at a concentration of 100 μM. The cells were incubated for two hours at 26° C. followed by two hours at 37° C. […] (Sigma).
Another approach to ascertain that the identified peptides were indeed MHC bound peptide antigens, their capacity to bind tightly and stabilize cell surface HLA-A2.1 was tested by reconstitution into empty MHC on the surface of RMA-S-HHD cells.

[1] = test system: EL4-HHD cells loaded with the peptides; assay: Cytotoxic T lymphocytes assay after immunization of HHD transgenic mice with peptide-loaded cells; type: in vivo; details: compared to negative control peptide ALLCAPSLL; effector-to-target ratio of 50:1 shown
From the text: Cells were loaded separately with individual peptides, washed and injected in four groups: 1-p1028 (SEQ ID NO:13) alone, 2- p1258 (SEQ ID NO:24) alone, 3-pool of peptides: p913 (SEQ ID NO:5), p958 (SEQ ID NO:9), p989 of CD59 (SEQ ID NO:11) and p989 of FLI (SEQ ID NO:12), 4- peptides p1031 (SEQ ID NO:14), p1121 (SEQ ID NO:22) and p1068 (SEQ ID NO:16). Unloaded EL4-HHD or targets cells not loaded with the peptides were used as negative controls. An effector-to-target ratio of 50:1 is shown,
Transgenic mice expressing a single chain HLA-A2.1/Db-β2 m which are double knockout for H-2 Db and for β2 m (HHD mice) were immunized four times intra-peritoneally at 7-day interval with 2×10^6 irradiated (5,000 rad) RMA-S-HHD-B7.1 cells loaded for two hours at 26° C. followed by two hours at 37° C. with 100 μM of the synthetic peptides. Ten days after the last immunization the spleens were removed from the vaccinated mice. Splenocytes were re-stimulated with 100 μM of synthetic peptides for five days. Viable lymphocytes were separated by lympholyte-M (Cadarlane, Hornby, Canada) and resuspended in RPMI-HEPES. Cytotoxic activity was measured as in [26] by admixing the lymphocytes at different ratios with 5×10^3 EL4-HHD cells grown in medium containing ^35S methionine and then loaded wit the synthetic peptides.
To further evaluate the affinity of the peptides to the HLA-A2 and to obtain some insight into their immunogenic potential, selected peptides were tested for their ability to induce an immune response in HLA-A2 transgenic mice. It was assumed that only peptides that could be effectively presented and remain tightly bound to the cells would be capable of inducing an immune response in these mice. The same synthetic peptides that were used for the FACS analysis were used for immunization of the HHD transgenic mice, which express the human HLA-A2.1/Db-β2 m single chain. To immunize the mice, the HHD culture cells were loaded with the different peptides and then injected to the HHD mice. The immune response in the mice was followed by the appearance of CTLs specific for these peptides. Some of the peptides were indeed capable of inducing an immune response, which both authenticate them as MHC bound peptides and gives an indication about their immunogenic potential.

Sequence	binding affinity to HLA-A2 / stabilization of empty MHC on the surface of RMA-S-HHD cells (HLA-A2.1)	lysis of peptide-loaded EL4-HHD cells by CTLs from immunized HHD mice [1]
GVYDGEEHSV	normal	–
FLFDGSPTYVL	–	significant lysis
ALSDHHIYL	–	significant lysis
GLIEKNIEL	–	significant lysis
TLWVDPYEV	–	significant lysis
